From patent US5750733A, “Hydroxy containing alkyl glycamides, low foaming detergent compositions comprising such and a process for their manufacture” (Lever Brothers Company, Division of Conopco, Inc., priority 1996, dated 1998)

Columns and labels:
[1] = Micellization and Surface Tension Reduction; type: physicochemical; details: in water
Text: The appearance and development of micelles are important since detergency (solubilization of soils) by dishwashing liquids, shampoos, detergents, etc., depend on the formation of these aggregates in solution.

[2] = Krafft Point (Water Solubility Test); details: for Krafft Point (0.1%): 0.1% dispersion in water by weight; for water solubility (in words): 0.1% in water, Krafft point test
Description: The temperature at and above which surfactants begin to form micelles instead of precipitates is referred to as the Krafft point (Tk) and at this temperature the solubility of a surfactant becomes equal to its CMC (numerical value at which micelles are formed).
The Krafft point was measured by preparing 650 ml of a 0.1% dispersion of surfactant in water by weight. If the surfactant was soluble at room temperature, the solution was slowly cooled to 0° C. […] If it precipitated out of solution, the temperature at which precipitation occurs was taken as the Krafft point.
If the surfactant was insoluble at room temperature, the dispersion was slowly heated until the solution became homogeneous. It was then slowly cooled until precipitation occurred. The temperature at which the surfactant precipitates out of solution upon cooling was taken as the Krafft point.

[3] = Ross-Miles Foam Height of Various Sugar Based Surfactants; details: 0.1% surfactant, 50° C.; for solubility in foam height test (in words): foam height cannot be measured if insoluble; for Initial foam height / Final foam height (10 min.): 0 ppm hardness; for Final foam height (10 min.): after 10 minutes
Description: Since most of the foaming data on surfactants is typically obtained by the Ross-Miles Foam Height Assay (Ross, J. and Miles, G. D. Am Soc. for Testing material Method D1173-63 Philadelphia, Pa. (1953); Oil & Soap (1958)62:1260) the foaming ability of these surfactants were acquired using this method.
In the Ross-Miles method, 200 mL of a surfactant solution contained in a pipette of specified dimensions with a 2.9 -mm-i.d. orifice is allowed to fall 90 cm onto 50 mL of the same solution contained in a cylindrical vessel maintained at a given temperature by means of a water jacket. The height of the foam produced in the cylindrical vessel is read immediately after all the solution has run out of the pipette and then again after a given amount of time.
Using this method, the foam production (initial foam height in mm) and foam stability (final foam height after 10 minutes as measured in mm) were measured at 0.1% sugar surfactant concentration, 50° C. and 0 ppm (parts per million) hardness.

[4] = Foaming of a Prototype Detergent Formulation (Ross Miles Foam Height Method); type: physicochemical; details: for Foam height of formulation, 5 min / Foam height of formulation, 10 min / Foam height of formulation, Initial: formulation with 4% of the compound, 0.4% formulation, 25° C., 18 FH
Text: A prototype detergent formulation comprising a hydroxy containing alkyl glycamide surfactant was made and tested to an identical formulation containing a non-hydroxy containing alkyl glycamide. The formulation is as follows: […]
C10 -C14 Linear Alkylbenzene Sulfonate
C12 -C15 Alcohol Ethoxylate Containing 7 Units of
Dodecyl 5-Hydroxy D-Glucamide (or Comparative)
Sodium Tripolyphosphate 30
Sodium Carboxymethyl Cellulose

[5] = Clarity Enhancement of prototype detergent compositions with sodium lauryl sulfate; type: physicochemical; details: 3% compound with 15.0% sodium lauryl sulfate, room temperature; for Appearance: stored 6 months
Description: The prototype detergent composition is as follows:
Hydroxy Containing Alkyl
Glycamide (or Comparative)
Sodium Chloride 2.0% Viscosity Cobuilder
The above formulations were prepared by admixing the above ingredients in listed order and heating the mixture to about 80° C. with rapid stirring. The mixture was then cooled to about 40° C., placed in a clear jar and stored at room temperature for 6 months.

zein = tested on: zein
Description: The zein solubilization assay was developed to determine the biological effects of surfactants on the skin. The protein is normally insoluble in water, but can be brought into solution by interaction with surfactants. The extent of zein dissolved is related to the irritation potential (M. J. Schwinger, Kolloid-Z.Z. Poly., 233, 848, 1969). The greater the zein solubilization, the greater the irritation potential of that surfactant on the skin.
Thus, a 1% solution of surfactant (30 mls) was added to 1.5 g of zein and stirred at room temperature for 1 hours. Residual zein was collected and dried to constant weight. Differences between starting and residual weight were used to calculate % zein solubilized.

Structure (SMILES) | Micellization and Surface Tension Reduction [1] | Krafft Point (0.1%) [2] | water solubility (in words) [2] | solubility in foam height test (in words) [3] | Initial foam height [3] | Final foam height (10 min.) [3] | also measured
CCCCCCCCCCCCCCCCCC(=O)NC[C@H](O)[C@@H](O)[C@H](O)[C@H](O)CO [Octadecyl D-Glucamide] | No | > 100 °C | Insoluble | Insoluble |  |  | 
CCCCCCCCCCCC(=O)N(C)C[C@H](O)[C@@H](O)[C@H](O)[C@H](O)CO [Dodecyl Methyl D-Glucamide, dodecyl methyl D-glucamide] | Yes | 45 °C |  |  | 173 mm | 157 mm | Foam height of formulation, 5 min [4]: 110 mm; Foam height of formulation, 10 min [4]: 100 mm; Foam height of formulation, Initial [4]: 135 mm
CN(C[C@H](O)[C@@H](O)[C@H](O[C@H]1O[C@H](CO)[C@@H](O)[C@H](O)[C@H]1O)[C@H](O)CO)C(=O)CCCCCCCCCCCO [Dodecyl 12-Hydroxy Methyl D-Maltamide, dodecyl 12-hydroxy methyl D-maltamide] | Yes | < 21 °C |  |  | 57 mm | Negligible | 
CCCCCCCCCCCCCCCC(=O)NC[C@H](O)[C@@H](O)[C@H](O)[C@H](O)CO [Hexadecyl D-Glucamide] | No | > 100 °C | Insoluble | Insoluble |  |  | 
CCCCCCCCCCCCCC(=O)NC[C@H](O)[C@@H](O)[C@H](O)[C@H](O)CO [Tetradecyl D-Glucamide] | No | > 100 °C | Insoluble | Insoluble |  |  | 
CCCCCCCC(O)CCCC(=O)NC[C@H](O)[C@@H](O)[C@H](O)[C@H](O)CO (stereo partly drawn) [Dodecyl 5-Hydroxy D-Glucamide, dodecyl 5-hydroxy D-glucamide] | Yes | 41 °C |  |  | 67 mm | Negligible | foaming of formulation (in words) ([4]; compared to identical formulation with dodecyl methyl D-glucamide): low foaming compared to identical formulations containing dodecyl methyl D-glucamide; Foam height of formulation, 5 min [4]: 94 mm; Foam height of formulation, 10 min [4]: 75 mm; Foam height of formulation, Initial [4]: 125 mm; Appearance ([5]; listed as C12 5-Hydroxy D-Glucamide): Clear; Appearance ([5]; listed as dodecyl 5-hydroxy glucamide): stay in solution; % Zein Solubilized (zein): 7%; mildness / zein solubilization (in words) (zein): less zein solubilization

Second part, led by results:

Micellization and Surface Tension Reduction [1] | Krafft Point (0.1%) [2] | water solubility (in words) [2] | solubility in foam height test (in words) [3] | Initial foam height [3] | Final foam height (10 min.) [3] | Structure (SMILES) | also measured
Yes | 37 °C |  |  | 60 mm | Negligible | CCCCCCCC(O)CCC(=O)NC[C@H](O)[C@@H](O)[C@H](O)[C@H](O)CO (stereo partly drawn) [Undecyl 4-Hydroxy D-Glucamide, undecyl-4-hydroxy D-glucamide] | 
No | > 100 °C | Insoluble | Insoluble |  |  | CCCCCCCCCCCCNC(=O)[C@@H](O)[C@H](O)[C@@H](O)[C@@H](O)CO [Dodecyl L-Gluconamide] | 
Yes | 12 °C |  |  | 0 mm | 0 mm | CCCCCCCCNC(=O)[C@H](O)[C@@H](O)[C@H](O)[C@H](O)CO [Octyl D-Gluconamide] | 
Yes | 75 °C |  |  | 199 mm | 6 mm | CCCCCCCCCCNC(=O)[C@H](O)[C@@H](O)[C@H](O)[C@H](O)CO [Decyl D-Gluconamide] | 
No | > 100 °C | Insoluble | Insoluble |  |  | CCCCCCCCCCCCCCNC(=O)[C@H](O)[C@@H](O)[C@H](O)[C@H](O)CO [Tetradecyl D-Gluconamide] | 
No | > 100 °C | Insoluble | Insoluble |  |  | CCCCCCCCCCCCNC(=O)[C@H](O)[C@@H](O)[C@H](O)[C@H](O)CO [Dodecyl D-Gluconamide] | 
No | > 100 °C | Insoluble | Insoluble |  |  | CCCCCCCCCCCC(=O)NC[C@H](O)[C@@H](O)[C@H](O)[C@H](O)CO [Dodecyl D-Glucamide, dodecyl D-glucamide] | Time to precipitation [5]: ≤ 3 days; Appearance [5]: Precipitate; Time to precipitation ([5]; listed as C12 D-Glucamide): 3 days
No | > 100 °C | Insoluble | Insoluble |  |  | CCCCCCCCCCCCCCCCNC(=O)[C@H](O)[C@@H](O)[C@H](O)[C@H](O)CO [Hexadecyl D-Gluconamide] | 
